Experimental data taken from the CheMixHub viscosity set.

Test: xn = mol fraction of the nth substance listed
Settings: 101 kPa

CCCCCCCCCO + CCCO
viscosity [mPa·s]
Settings | 298.15 K | 308.15 K | 318.15 K
x2 = 0.05 | 8.682 | 6.217 | 4.482
x2 = 0.1 | 8.263 | 5.92 | 4.293
x2 = 0.15 | 7.846 | 5.632 | 4.11
x2 = 0.2 | 7.432 | 5.351 | 3.929
x2 = 0.25 | 7.022 | 5.076 | 3.752
x2 = 0.3 | 6.618 | 4.806 | 3.575
x2 = 0.35 | 6.22 | 4.542 | 3.399
x2 = 0.4 | 5.83 | 4.282 | 3.223
x2 = 0.45 | 5.447 | 4.026 | 3.046
x2 = 0.5 | 5.073 | 3.774 | 2.869
x2 = 0.55 | 4.708 | 3.525 | 2.691
x2 = 0.6 | 4.352 | 3.279 | 2.514
x2 = 0.65 | 4.005 | 3.037 | 2.337
x2 = 0.7 | 3.668 | 2.798 | 2.161
x2 = 0.75 | 3.34 | 2.563 | 1.988
x2 = 0.8 | 3.022 | 2.332 | 1.819
x2 = 0.85 | 2.712 | 2.106 | 1.656
x2 = 0.9 | 2.412 | 1.884 | 1.5
x2 = 0.95 | 2.12 | 1.668 | 1.354

CC(=O)N(C)C + CCO
viscosity [mPa·s]
Settings | 298.15 K | 303.15 K | 308.15 K | 313.15 K | 318.15 K
x1 = 0.0653 | – | 0.9549 | 0.8702 | 0.8052 | 0.7371
x1 = 0.0809 | – | 0.944 | – | – | –
x1 = 0.1358 | 0.9918 | 0.9129 | 0.8423 | 0.7795 | 0.716
x1 = 0.1399 | – | 0.915 | – | – | –
x1 = 0.2001 | – | 0.894 | – | – | –
x1 = 0.2123 | 0.9588 | 0.8868 | 0.8171 | 0.7631 | 0.7077
x1 = 0.2626 | – | 0.878 | – | – | –
x1 = 0.2954 | 0.9368 | 0.8691 | 0.8034 | 0.7509 | 0.6996
x1 = 0.3738 | – | 0.865 | – | – | –
x1 = 0.386 | 0.9289 | 0.8634 | 0.7995 | 0.751 | 0.6999
x1 = 0.4854 | 0.928 | 0.8622 | 0.8019 | 0.753 | 0.7022
x1 = 0.4935 | – | 0.861 | – | – | –
x1 = 0.5947 | 0.9232 | 0.8595 | 0.7991 | 0.7552 | 0.7034
x1 = 0.5953 | – | 0.862 | – | – | –
x1 = 0.6938 | – | 0.863 | – | – | –
x1 = 0.7155 | 0.9273 | 0.8639 | 0.8093 | – | 0.7108
x1 = 0.7965 | – | 0.865 | – | – | –
x1 = 0.8498 | 0.9421 | 0.8705 | 0.81 | – | 0.7156
x1 = 0.8971 | – | 0.867 | – | – | –

CC(=O)N1CCOCC1 + CCO
viscosity [mPa·s]
Settings | 293.15 K | 303.15 K | 313.15 K | 323.15 K
x1 = 0.0563 | 1.847 | 1.495 | 1.153 | 0.928
x1 = 0.1288 | 2.747 | 2.302 | 1.832 | 1.518
x1 = 0.2164 | 3.689 | 3.134 | 2.511 | 2.096
x1 = 0.2843 | 4.374 | 3.728 | 2.983 | 2.484
x1 = 0.3147 | 4.656 | 3.974 | 3.174 | 2.639
x1 = 0.3944 | 5.318 | 4.533 | 3.594 | 2.966
x1 = 0.4512 | 5.718 | 4.858 | 3.819 | 3.122
x1 = 0.4957 | 6.016 | 5.101 | 3.983 | 3.232
x1 = 0.5253 | 6.179 | 5.227 | 4.056 | 3.269
x1 = 0.5832 | 6.499 | 5.472 | 4.199 | 3.343
x1 = 0.6341 | 6.728 | 5.638 | 4.275 | 3.358
x1 = 0.6813 | 6.984 | 5.832 | 4.387 | 3.413
x1 = 0.7348 | 7.169 | 5.948 | 4.407 | 3.369
x1 = 0.7921 | 7.459 | 6.164 | 4.522 | 3.417
x1 = 0.8452 | 7.653 | 6.289 | 4.554 | 3.434
x1 = 0.9127 | 8.019 | 6.569 | 4.788 | 3.615
x1 = 0.9734 | 8.395 | 6.932 | 5.046 | 3.797

CC(N)=O + CCO
303.15 K
Settings | viscosity [mPa·s]
x1 = 0.0327 | 9.42
x1 = 0.0646 | 10
x1 = 0.0901 | 10.16
x1 = 0.1011 | 12.61

CCCCCCCCCO + CCO
viscosity [mPa·s]
Settings | 298.15 K | 308.15 K | 318.15 K
x2 = 0.05 | 8.632 | 6.193 | 4.473
x2 = 0.1 | 8.168 | 5.872 | 4.273
x2 = 0.15 | 7.706 | 5.558 | 4.073
x2 = 0.2 | 7.247 | 5.25 | 3.874
x2 = 0.25 | 6.791 | 4.945 | 3.675
x2 = 0.3 | 6.34 | 4.645 | 3.475
x2 = 0.35 | 5.893 | 4.347 | 3.275
x2 = 0.4 | 5.453 | 4.052 | 3.074
x2 = 0.45 | 5.019 | 3.759 | 2.871
x2 = 0.5 | 4.593 | 3.469 | 2.668
x2 = 0.55 | 4.176 | 3.182 | 2.465
x2 = 0.6 | 3.769 | 2.898 | 2.261
x2 = 0.65 | 3.375 | 2.619 | 2.059
x2 = 0.7 | 2.993 | 2.345 | 1.858
x2 = 0.75 | 2.627 | 2.078 | 1.66
x2 = 0.8 | – | 1.818 | 1.466
x2 = 0.85 | 1.946 | 1.569 | 1.277
x2 = 0.9 | 1.635 | 1.331 | 1.094
x2 = 0.95 | 1.346 | 1.108 | 0.9197
